Assay results taken from PubChem BioAssay (NCI).
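Where inhibition never reached the appropriate level, the endpoint shown equals the highest concentration tested. Otherwise, values were interpolated linearly from a five-concentration, 48-hour dose response in 96-well plates. At the TGI there is no net growth.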

Key:
Test in all cases: DTP human tumour cell line panel, 48 h
A549 NSCLC = test system: A549 NSCLC
COLO 205 colon = test system: COLO 205 colon
HCT-116 colon = test system: HCT-116 colon
HL-60(TB) leukemia = test system: HL-60(TB) leukemia
HOP-62 NSCLC = test system: HOP-62 NSCLC
NCI-H460 lung = test system: NCI-H460 lung
RXF 393 renal = test system: RXF 393 renal
SF-539 CNS = test system: SF-539 CNS
SK-MEL-28 melanoma = test system: SK-MEL-28 melanoma
SN12C renal = test system: SN12C renal
SW-620 colon = test system: SW-620 colon
TK-10 renal = test system: TK-10 renal
BT-549 breast = test system: BT-549 breast
CAKI-1 renal = test system: CAKI-1 renal
HOP-92 NSCLC = test system: HOP-92 NSCLC
MDA-MB-231 breast = test system: MDA-MB-231 breast
MDA-MB-435 = test system: MDA-MB-435
NCI-H226 lung = test system: NCI-H226 lung
A498 renal = test system: A498 renal
NCI/ADR-RES ovarian = test system: NCI/ADR-RES ovarian

Structure (SMILES)	TGI (A549 NSCLC)	TGI (COLO 205 colon)	TGI (HCT-116 colon)	TGI (HL-60(TB) leukemia)	TGI (HOP-62 NSCLC)	TGI (NCI-H460 lung)	TGI (RXF 393 renal)	TGI (SF-539 CNS)	TGI (SK-MEL-28 melanoma)	TGI (SN12C renal)	TGI (SW-620 colon)	TGI (TK-10 renal)	TGI (BT-549 breast)	TGI (CAKI-1 renal)	TGI (HOP-92 NSCLC)	TGI (MDA-MB-231 breast)	TGI (MDA-MB-435)	TGI (NCI-H226 lung)	TGI (A498 renal)	TGI (NCI/ADR-RES ovarian)
O=C1CCC(=O)N1Cc1ccccc1N=[N+]([O-])c1ccccc1CN1C(=O)CCC1=O	> 100 µM	> 100 µM	> 100 µM	> 100 µM	> 100 µM	> 100 µM	> 100 µM	> 100 µM	> 100 µM	> 100 µM	> 100 µM	> 100 µM	–	–	–	–	–	–	–	–
O=C1C(N2CCNCC2)=C(Cl)C(=O)c2ncccc21	> 10 µM	> 10 µM	4.36 µM	–	> 10 µM	> 10 µM	> 10 µM	> 10 µM	> 10 µM	> 10 µM	> 10 µM	> 10 µM	> 10 µM	> 10 µM	7.82 µM	> 10 µM	> 10 µM	> 10 µM	–	–
CC(=O)OCC1OC(n2c(-c3ccccc3)c(C(C)=O)c(-c3ccc(Cl)cc3)c(C#N)c2=S)C(OC(C)=O)C(OC(C)=O)C1OC(C)=O (centres undefined)	> 100 µM	> 100 µM	> 100 µM	> 100 µM	> 100 µM	> 100 µM	> 100 µM	> 100 µM	> 100 µM	> 100 µM	> 100 µM	> 100 µM	–	> 100 µM	71.5 µM	> 100 µM	> 100 µM	> 100 µM	> 100 µM	> 100 µM
O=C(CC(C(=O)c1ccco1)c1ccsc1)c1ccco1 (centres undefined)	> 100 µM	> 100 µM	> 100 µM	> 100 µM	> 100 µM	> 100 µM	> 100 µM	> 100 µM	> 100 µM	> 100 µM	> 100 µM	> 100 µM	–	> 100 µM	> 100 µM	> 100 µM	> 100 µM	> 100 µM	> 100 µM	> 100 µM
CC(C)(C)C(=O)C(C(=O)C(C)(C)C)C(=O)C(C)(C)C	> 100 µM	> 100 µM	> 100 µM	> 100 µM	> 100 µM	> 100 µM	> 100 µM	> 100 µM	> 100 µM	> 100 µM	> 100 µM	> 100 µM	–	> 100 µM	> 100 µM	> 100 µM	> 100 µM	> 100 µM	> 100 µM	> 100 µM
O=C(NC(CS)C(=O)O)c1cccc2c(=O)c3ccccc3[nH]c12 (centres undefined)	> 100 µM	> 100 µM	> 100 µM	> 100 µM	> 100 µM	–	–	–	> 100 µM	> 100 µM	> 100 µM	> 100 µM	–	–	> 100 µM	> 100 µM	> 100 µM	> 100 µM	> 100 µM	> 100 µM
CC(=O)OC1COC(Nc2ccc(C(C)=O)cc2)C(OC(C)=O)C1OC(C)=O (centres undefined)	> 100 µM	> 100 µM	–	–	> 100 µM	> 100 µM	> 100 µM	> 100 µM	> 100 µM	> 100 µM	> 100 µM	> 100 µM	–	> 100 µM	> 100 µM	–	–	> 100 µM	> 100 µM	–
Cn1nc2ccc3nccc(N4CCN(CCO)CC4)c3c2n1	> 100 µM	> 100 µM	> 100 µM	–	> 100 µM	> 100 µM	> 100 µM	–	> 100 µM	> 100 µM	> 100 µM	> 100 µM	> 100 µM	–	–	> 100 µM	> 100 µM	> 100 µM	> 100 µM	–
COc1cc(C)c(/C=C/C(=O)N2C(=O)OC[C@@H]2c2ccccc2)c(C)c1	> 100 µM	> 100 µM	> 100 µM	> 100 µM	> 100 µM	–	> 100 µM	> 100 µM	> 100 µM	> 100 µM	> 100 µM	> 100 µM	–	> 100 µM	> 100 µM	> 100 µM	> 100 µM	> 100 µM	> 100 µM	> 100 µM
CC(C)(C)OC(=O)c1cnc(Cl)cn1	> 100 µM	> 100 µM	> 100 µM	–	> 100 µM	> 100 µM	–	> 100 µM	> 100 µM	> 100 µM	> 100 µM	> 100 µM	> 100 µM	16.6 µM	18.4 µM	> 100 µM	> 100 µM	> 100 µM	–	> 100 µM
CS/C1=C(\c2ccc(C)cc2)N(c2ccccc2)C(=O)C(=O)N(c2ccccc2)/C(c2ccc(C)cc2)=C(/SC)SS1	–	> 100 µM	> 100 µM	> 100 µM	> 100 µM	> 100 µM	–	> 100 µM	> 100 µM	> 100 µM	> 100 µM	> 100 µM	–	> 100 µM	> 100 µM	> 100 µM	> 100 µM	–	> 100 µM	> 100 µM
COc1ccc(C(=O)Cc2c(C(=O)c3ccccc3)c3ccccc3n2C(=O)c2ccccc2)cc1	> 100 µM	> 100 µM	> 100 µM	> 100 µM	> 100 µM	> 100 µM	–	> 100 µM	> 100 µM	–	> 100 µM	> 100 µM	–	> 100 µM	> 100 µM	–	–	> 100 µM	–	–
Nc1ccc2nc(Nc3ccc(F)cc3)cnc2c1	> 100 µM	> 100 µM	> 100 µM	> 100 µM	> 100 µM	> 100 µM	–	> 100 µM	> 100 µM	> 100 µM	> 100 µM	> 100 µM	–	> 100 µM	–	–	–	> 100 µM	–	–
Clc1ccc2c(c1)C1C(CO2)C(c2ccccc2)=NN1c1ccccc1 (centres undefined)	> 100 µM	> 100 µM	62.4 µM	53.1 µM	> 100 µM	> 100 µM	> 100 µM	–	> 100 µM	–	> 100 µM	> 100 µM	–	–	58.9 µM	–	–	–	> 100 µM	–
